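In this assay, cells in 96-well plates receive the compound at five concentrations for 48 hours. Endpoints are linearly interpolated between the surrounding concentrations. GI50: concentration for 50% inhibition of growth.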 Activity calls are given as the source filed them. Cut-off read from the data, not from the text of the source: active = GI50 up to about 1.1 µM and inactive = higher.
How the values were obtained:
Experiment in all cases: growth of human tumour cells (NCI), 48 h
KM-20L2 = test system: KM-20L2
SNB-78 = test system: SNB-78
DMS-273 = test system: DMS-273
XF498 = test system: XF498
DLD-1 = test system: DLD-1
DMS-114 = test system: DMS-114
M19-MEL = test system: M19-MEL
HOP-18 = test system: HOP-18
RXF 631 = test system: RXF 631

Measured: GI50

Cc1ccc(C2=C(c3ccccc3)C(O)(c3ccc(C)cc3)C(c3ccccc3)=C2c2ccc(C)cc2)cc1
inactive: KM-20L2 > 100 µM | SNB-78 > 100 µM | DMS-273 > 100 µM | XF498 > 100 µM | DLD-1 > 100 µM | DMS-114 > 100 µM | M19-MEL > 100 µM

O/N=C1/C(=C/c2ccc(Br)cc2)CCCC1C(NO)c1ccc(Br)cc1 (stereo not given)
inactive: KM-20L2 17.3 µM | HOP-18 18.9 µM | SNB-78 13.4 µM | RXF 631 14.8 µM | DMS-273 13.1 µM | DMS-114 13.5 µM | M19-MEL 17 µM

CC1=C(/C(C)=N/NC(=O)c2ccccc2O)C(C)C(/C(C)=N/NC(=O)c2ccccc2O)=C(C)N1
inactive: KM-20L2 33.3 µM | SNB-78 40.6 µM | RXF 631 37.1 µM | XF498 15.1 µM | DLD-1 27.9 µM | DMS-114 16.2 µM | M19-MEL 18.7 µM

O=C1[C@H]2ON(c3ccccc3)C(c3ccccc3F)[C@H]2C(=O)N1c1ccc(Cc2ccc(N3C(=O)[C@@H]4ON(c5ccccc5)C(c5ccccc5F)[C@@H]4C3=O)cc2)cc1 (stereo not given in full)
inactive: KM-20L2 > 100 µM | HOP-18 > 100 µM | SNB-78 > 100 µM | RXF 631 > 100 µM | DMS-273 46.1 µM | XF498 > 100 µM | DLD-1 > 100 µM | DMS-114 > 100 µM | M19-MEL > 100 µM

NC(Cc1ccccc1)C(=O)OCN1C(=O)C2C3C=CC(C2C1=O)C1C2C(=O)N(COC(=O)C(N)Cc4ccccc4)C(=O)C2C31 (stereo not given)
inactive: KM-20L2 28.4 µM | XF498 30.8 µM | DLD-1 23 µM | DMS-114 20.9 µM

CCOc1ccc(NC(=O)C(=O)CC(=O)C2=C(C)Nc3ccccc3S2)cc1
inactive: KM-20L2 > 50 µM | HOP-18 > 50 µM | RXF 631 > 50 µM | XF498 > 50 µM | DLD-1 > 50 µM | DMS-114 > 50 µM | M19-MEL > 50 µM

CC(=O)OCC1OC(n2c(=O)n(-c3ccccc3)c(=O)c3ccccc32)C(OC(C)=O)C(OC(C)=O)C1OC(C)=O (stereo not given)
inactive: KM-20L2 > 100 µM | HOP-18 > 100 µM | SNB-78 > 100 µM | RXF 631 > 100 µM | DMS-273 > 100 µM | DLD-1 > 100 µM | DMS-114 > 100 µM | M19-MEL > 100 µM

C#CC[N+](C)(CC#C)CC#C
inactive: KM-20L2 > 100 µM | SNB-78 > 100 µM | RXF 631 > 100 µM | DMS-273 > 100 µM | XF498 > 100 µM | DLD-1 > 100 µM | DMS-114 > 100 µM | M19-MEL > 100 µM

CC(=O)OC1C=CC2CCN3C(=O)c4cc5c(cc4[C@H]1C23)OCO5 (stereo not given in full)
inactive: KM-20L2 > 100 µM | SNB-78 > 100 µM | DMS-273 > 100 µM | DLD-1 > 100 µM | DMS-114 > 100 µM | M19-MEL > 100 µM

CC(C)(C)C(=O)N1C(C(=O)O)Cc2ccccc2[C@@H]1Cc1ccccc1 (stereo not given in full)
inactive: KM-20L2 > 100 µM | HOP-18 > 100 µM | SNB-78 > 100 µM | RXF 631 > 100 µM | DMS-273 > 100 µM | XF498 > 100 µM | DMS-114 > 100 µM | M19-MEL > 100 µM

Cn1c(=O)nc2n(-c3cccc(Cl)c3)c3ccccc3nc-2c1=O
inactive: KM-20L2 5.92 µM | HOP-18 12.2 µM | SNB-78 23.7 µM | RXF 631 13.5 µM | DMS-273 9.55 µM | XF498 19.9 µM | DMS-114 6.34 µM

CCCCCCCCCCCCCCCCCCOCC(C[N+]1(C)CCC(O)CC1)OCC (stereo not given)
inactive: SNB-78 3.18 µM | RXF 631 4.93 µM | DMS-273 2.28 µM | XF498 13.3 µM | DLD-1 11.8 µM | DMS-114 3.19 µM | M19-MEL 3.52 µM

O=c1oc2c(O)c(O)c(O)c3c(=O)oc4c(O)c(O)cc1c4c23 [FLAVELLAGIC ACID]
inactive: KM-20L2 > 100 µM | HOP-18 > 100 µM | SNB-78 > 100 µM | DMS-273 85.1 µM | DLD-1 > 100 µM | DMS-114 29.7 µM | M19-MEL 9.79 µM

Cc1cc(OC(=O)c2c(C)cc(OC(=O)c3c(C)cc(O)cc3O)cc2O)cc(O)c1C(=O)O [GYROPHORIC ACID]
inactive: KM-20L2 > 100 µM | SNB-78 > 100 µM | RXF 631 > 100 µM | DMS-273 > 100 µM | XF498 > 100 µM | DLD-1 > 100 µM | DMS-114 > 100 µM | M19-MEL > 100 µM
